Entries after “also recorded” stand apart in the source; their conditions may differ.
Legend:
SpCas9 [1] = molecular target: T1, SpCas9 (Streptococcus pyogenes serotype M1, UniProt Q99ZW2); assay: cell-based
SpCas9 [2] = molecular target: T1, SpCas9; assay: Broad spectrum CRISPR inhibition, SpCas9 (FIG. 22A); format: biochemical, S. pyogenes
SpCas9 [3] = molecular target: T1, SpCas9; details: FIG. 16C
FnCpf1 = FnCpf1 (Francisella tularensis subsp. novicida, UniProt A0Q7Q2); format: biochemical; details: FIG. 22B
[4] = test system: CRISPR mediated gene tagging with HiBiT; assay: CRISPR mediated gene tagging with HiBiT in cells (bioluminescence); format: cell-based; details: various concentrations; FIG. 17B

Chain of FnCpf1 (A0Q7Q2 whole entry, looked up): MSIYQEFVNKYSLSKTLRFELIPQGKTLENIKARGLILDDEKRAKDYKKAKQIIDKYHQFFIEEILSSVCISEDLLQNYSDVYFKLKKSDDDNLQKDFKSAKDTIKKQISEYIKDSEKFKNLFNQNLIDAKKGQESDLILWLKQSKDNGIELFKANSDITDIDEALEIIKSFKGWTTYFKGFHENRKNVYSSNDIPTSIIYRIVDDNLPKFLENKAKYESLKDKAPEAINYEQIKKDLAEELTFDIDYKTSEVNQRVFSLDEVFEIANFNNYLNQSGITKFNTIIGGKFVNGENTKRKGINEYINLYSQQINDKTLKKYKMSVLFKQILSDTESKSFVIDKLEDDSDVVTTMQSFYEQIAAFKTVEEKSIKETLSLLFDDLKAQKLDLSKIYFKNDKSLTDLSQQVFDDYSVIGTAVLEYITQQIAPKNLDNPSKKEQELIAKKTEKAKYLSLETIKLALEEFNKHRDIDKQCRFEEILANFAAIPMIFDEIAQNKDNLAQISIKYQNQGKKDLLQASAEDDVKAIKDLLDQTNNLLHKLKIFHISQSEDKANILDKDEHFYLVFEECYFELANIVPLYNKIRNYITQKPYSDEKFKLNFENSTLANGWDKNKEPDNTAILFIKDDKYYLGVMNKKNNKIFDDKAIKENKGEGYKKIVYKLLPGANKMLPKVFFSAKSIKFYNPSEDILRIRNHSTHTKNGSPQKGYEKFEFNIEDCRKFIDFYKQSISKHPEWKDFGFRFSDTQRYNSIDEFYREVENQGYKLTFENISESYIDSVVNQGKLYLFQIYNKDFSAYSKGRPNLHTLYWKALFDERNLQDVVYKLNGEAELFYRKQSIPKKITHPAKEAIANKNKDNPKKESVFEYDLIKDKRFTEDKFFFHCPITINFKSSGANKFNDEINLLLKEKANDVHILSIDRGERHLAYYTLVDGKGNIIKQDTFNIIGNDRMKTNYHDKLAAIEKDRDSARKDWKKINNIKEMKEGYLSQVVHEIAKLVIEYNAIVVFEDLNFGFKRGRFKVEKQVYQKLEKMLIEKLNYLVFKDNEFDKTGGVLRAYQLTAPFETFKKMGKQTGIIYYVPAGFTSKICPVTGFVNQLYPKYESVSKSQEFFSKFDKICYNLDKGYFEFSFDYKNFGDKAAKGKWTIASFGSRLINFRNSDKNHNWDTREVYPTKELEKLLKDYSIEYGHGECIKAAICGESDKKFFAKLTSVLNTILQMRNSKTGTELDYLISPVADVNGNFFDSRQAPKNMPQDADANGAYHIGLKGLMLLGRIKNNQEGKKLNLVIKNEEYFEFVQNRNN
T1 sequence (Q99ZW2 whole entry): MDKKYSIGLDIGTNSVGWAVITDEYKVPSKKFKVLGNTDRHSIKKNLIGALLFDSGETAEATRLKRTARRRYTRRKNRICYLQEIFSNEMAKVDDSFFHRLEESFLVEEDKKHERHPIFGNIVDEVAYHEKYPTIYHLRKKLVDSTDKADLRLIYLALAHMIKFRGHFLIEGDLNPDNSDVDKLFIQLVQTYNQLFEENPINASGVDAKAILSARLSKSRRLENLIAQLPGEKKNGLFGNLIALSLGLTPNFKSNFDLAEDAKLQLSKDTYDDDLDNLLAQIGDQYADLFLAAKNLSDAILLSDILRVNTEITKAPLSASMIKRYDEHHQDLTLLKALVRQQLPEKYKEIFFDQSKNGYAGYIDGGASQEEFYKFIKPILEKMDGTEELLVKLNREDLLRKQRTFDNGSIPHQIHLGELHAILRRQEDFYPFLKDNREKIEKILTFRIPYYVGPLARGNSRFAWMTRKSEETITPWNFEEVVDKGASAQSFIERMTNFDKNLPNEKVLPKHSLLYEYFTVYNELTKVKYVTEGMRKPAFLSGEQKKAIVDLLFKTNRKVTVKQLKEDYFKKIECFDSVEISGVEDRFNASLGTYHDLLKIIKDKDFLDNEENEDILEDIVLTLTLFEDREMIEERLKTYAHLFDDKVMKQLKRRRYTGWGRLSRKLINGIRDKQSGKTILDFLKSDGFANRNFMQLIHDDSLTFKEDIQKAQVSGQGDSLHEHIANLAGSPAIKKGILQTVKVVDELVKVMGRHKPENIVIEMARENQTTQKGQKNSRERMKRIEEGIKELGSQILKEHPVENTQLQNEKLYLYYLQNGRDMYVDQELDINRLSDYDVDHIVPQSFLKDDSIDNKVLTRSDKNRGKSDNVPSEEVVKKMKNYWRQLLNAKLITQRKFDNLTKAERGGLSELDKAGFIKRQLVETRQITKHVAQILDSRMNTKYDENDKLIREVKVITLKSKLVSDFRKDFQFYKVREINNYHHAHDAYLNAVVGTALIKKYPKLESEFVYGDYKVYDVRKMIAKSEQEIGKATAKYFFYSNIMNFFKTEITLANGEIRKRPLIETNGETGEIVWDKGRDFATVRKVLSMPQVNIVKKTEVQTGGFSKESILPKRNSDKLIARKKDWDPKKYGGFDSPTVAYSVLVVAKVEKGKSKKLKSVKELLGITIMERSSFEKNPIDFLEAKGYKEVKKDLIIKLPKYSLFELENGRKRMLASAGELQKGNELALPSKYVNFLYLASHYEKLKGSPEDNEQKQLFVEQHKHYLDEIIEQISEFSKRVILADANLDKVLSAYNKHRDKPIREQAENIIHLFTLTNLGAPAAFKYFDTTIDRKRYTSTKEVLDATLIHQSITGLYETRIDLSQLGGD

SMILES	IC50 (SpCas9 [1])	Inhibition of SpCas9 (SpCas9 [2])	eGFP fluorescence in the presence of eGFP-targeted SpCas9 activity (SpCas9 [3])	Inhibition of FnCpf1 (FnCpf1)	Inhibition of CRISPR mediated gene tagging with HiBiT (bioluminescence) [4]
N#C[C@@H]1N[C@H](CO)[C@H]1c1ccc(-c2ccccc2F)cc1 [BRD7608]	3.9 µM	broad-spectrum CRISPR inhibitors; also recorded: similarly inhibit	eGFP fluorescence is maintained	broad-spectrum CRISPR inhibitors; also recorded: similarly inhibit	inhibited in a dose-dependent manner
N#C[C@H]1N[C@@H](CO)[C@@H]1c1ccc(C#CC2CCCC2)cc1 [BRD9822]	5.5 µM	broad-spectrum CRISPR inhibitors; also recorded: similarly inhibit	eGFP fluorescence is maintained	broad-spectrum CRISPR inhibitors; also recorded: similarly inhibit	inhibited in a dose-dependent manner
